Experiments:
transplanted rice = experiment: Test Example 1: effect on crop, application before weed generation under submerged conditions (Table 16, symbol a); assay type: in vivo; details: amount of applied herbicide 214 g/ha
Procedure, shortened: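 Alluvial soil was flooded to 4 cm depth, weed seeds were sown mixed and 2.5-leaf rice seedlings were transplanted. On sowing day, the compound's emulsion, diluted in water to a set dose, was applied to the water surface. Plants grew at 25–30 °C and were scored 0–5 after three weeks.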

directly sowed rice = experiment: Test Example 3: effect on crop by foliage application, Wagner pot (Table 18, symbol b); assay type: in vivo; details: 214 g/ha
Procedure, shortened: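 Plants were sown in alluvial soil held under 0.1–0.5 cm standing water and grown 14 days in a greenhouse at 25–30 °C. An emulsifiable formulation, water-diluted to the set dose, was then sprayed onto the foliage, and effects were scored three weeks later using previously defined criteria.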

wheat [1] = experiment: Test Example 5: effect on crop by foliage application, plastic box (Table 20, symbol e); assay type: in vivo; details: 214 g/ha, three weeks after application
Procedure, shortened: (§1)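 Foliar spray test: emulsion formulation diluted in water to a set application rate, sprayed onto 14-day-old plants raised in diluvial soil at 25° C to 30° C under glass. Both herbicidal effect and crop effect rated visually three weeks later.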

rapeseed [2] = experiment: Test Example 5: effect on crop by foliage application, plastic box (Table 20, symbol g); assay type: in vivo; details: 214 g/ha, three weeks after application
Procedure, shortened: as §1

beet [3] = experiment: Test Example 4: effect on crop by soil treatment (Table 19, symbol f); assay type: in vivo; details: amount of applied herbicide 214 g/ha
Procedure, shortened: (§2)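 Herbicidal effect was rated 3 weeks after treatment, using the scoring criteria of an earlier test. The compound, formulated as an emulsion and diluted in water to a set herbicide amount, had been sprayed uniformly on soil over freshly sown seeds. Growth took place in a greenhouse at 25° C. to 30° C.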

wheat [4] = experiment: Test Example 4: effect on crop by soil treatment (Table 19, symbol e); assay type: in vivo; details: amount of applied herbicide 214 g/ha
Procedure, shortened: as §2

beet [5] = experiment: Test Example 5: effect on crop by foliage application, plastic box (Table 20, symbol f); assay type: in vivo; details: 214 g/ha, three weeks after application
Procedure, shortened: as §1

corn [6] = experiment: Test Example 5: effect on crop by foliage application, plastic box (Table 20, symbol c); assay type: in vivo; details: 214 g/ha, three weeks after application
Procedure, shortened: as §1

corn [7] = experiment: Test Example 4: effect on crop by soil treatment (Table 19, symbol c); assay type: in vivo; details: amount of applied herbicide 214 g/ha
Procedure, shortened: as §2

soybean [8] = experiment: Test Example 5: effect on crop by foliage application, plastic box (Table 20, symbol d); assay type: in vivo; details: 214 g/ha, three weeks after application
Procedure, shortened: as §1

rapeseed [9] = experiment: Test Example 4: effect on crop by soil treatment (Table 19, symbol g); assay type: in vivo; details: amount of applied herbicide 214 g/ha
Procedure, shortened: as §2

false cleavers = experiment: Test Example 5: herbicidal effect by foliage application, plastic box (Table 20, symbol Q); assay type: in vivo, false cleavers (Galium spurium); details: foliage application, 214 g/ha, three weeks after application
Procedure, shortened: as §1

soybean [10] = experiment: Test Example 4: effect on crop by soil treatment (Table 19, symbol d); assay type: in vivo; details: amount of applied herbicide 214 g/ha
Procedure, shortened: as §2

COc1ccc2c(-c3c(O)c(C)nn(C)c3=O)c(-c3ccccc3OC)sc2c1 [Compound No. 3-065, 5-hydroxy-4-(6-methoxy-2-(2-methoxyphenyl)benzo[b]thiophen-3-yl)-2,6-dimethylpyridazin-3(2H)-one]
Effect on crop, a: transplanted rice (transplanted rice): 0 (Herbicidal rate of 5% or less (almost no effect))
effect on directly sowed rice (b) (directly sowed rice): 1 (Herbicidal rate of 5% or more and less than 20%)
e: wheat, effect on crop grade (wheat [1]): 2 (Herbicidal rate of 20% or more and less than 40%)
g: rapeseed, effect on crop grade (rapeseed [2]): 5 (Herbicidal rate of 90% or more (almost completely withered))
f: beet, effect on crop grade (beet [3]): 3 (Herbicidal rate of 40% or more and less than 70%)
e: wheat, effect on crop grade (wheat [4]): 0 (Herbicidal rate of 5% or less (almost no effect))
f: beet, effect on crop grade (beet [5]): 5 (Herbicidal rate of 90% or more (almost completely withered))
c: corn, effect on crop grade (corn [6]): 0 (Herbicidal rate of 5% or less (almost no effect))
c: corn, effect on crop grade (corn [7]): 0 (Herbicidal rate of 5% or less (almost no effect))
melting point: 243 to 244 °C
d: soybean, effect on crop grade (soybean [8]): 5 (Herbicidal rate of 90% or more (almost completely withered))
g: rapeseed, effect on crop grade (rapeseed [9]): 5 (Herbicidal rate of 90% or more (almost completely withered))
Q: false cleavers, herbicidal effect grade (false cleavers): 5 (Herbicidal rate of 90% or more (almost completely withered))
d: soybean, effect on crop grade (soybean [10]): 0 (Herbicidal rate of 5% or less (almost no effect))

— patent US20230085307A1, “PYRIDAZINONE COMPOUND AND HERBICIDE” (NISSAN CHEMICAL CORPORATION, priority 2019, published 2023)
